# Values quoted from earlier work, collected in patent US11504326B2, “Lipid emulsion therapy for treating acute cannabinoid intoxication” (priority 2019, dated 2022).
# Read-outs that look alike come from different tables or passages of the source.
# Columns and labels:
# [1] = test system: psychoactive effects; settings: for dose that impairs attention, concentration, short-term memory, and executive functioning: adolescents and adults
# [2] = in vivo
smiles,measurement,setting,value
"CCCCCc1cc(O)c2c(c1)OC(C)(C)[C@@H]1CCC(C)=C[C@@H]21 [THC, tetrahydrocannabinol]","dose that impairs attention, concentration, short-term memory, and executive functioning",[1]; ingested,5 to 20 mg
same,dose at which psychotropic effects occur,"[1]; ingested, naive users",5 to 20 mg
same,"dose that impairs attention, concentration, short-term memory, and executive functioning",[1]; inhaled,2 to 3 mg
same,dose sufficient to produce drug effects,"[1]; inhaled, naïve user",2 to 3 mg
same,protein-bound,[2],95-99%
same,volume of distribution,[2],2.5 to 3.5 L/kg
